The nature of series [1]: Metabolic stability in rat liver microsomes assessed as compound remaining at 1 uM incubated for 30 mins in presence of NADPH by LC-MS/MS analysis. Background: Microsomes from liver hold many membrane-bound enzymes, among them those of drug oxidation.
Series [2] is described as follows: physchem. The conditions noted are these: JP2 fluid, pH 6.8.
The target in series [3] is T1, Parathyroid hormone/parathyroid hormone-related peptide receptor (Homo sapiens, UniProt Q03431).
T1 sequence (Q03431 whole entry): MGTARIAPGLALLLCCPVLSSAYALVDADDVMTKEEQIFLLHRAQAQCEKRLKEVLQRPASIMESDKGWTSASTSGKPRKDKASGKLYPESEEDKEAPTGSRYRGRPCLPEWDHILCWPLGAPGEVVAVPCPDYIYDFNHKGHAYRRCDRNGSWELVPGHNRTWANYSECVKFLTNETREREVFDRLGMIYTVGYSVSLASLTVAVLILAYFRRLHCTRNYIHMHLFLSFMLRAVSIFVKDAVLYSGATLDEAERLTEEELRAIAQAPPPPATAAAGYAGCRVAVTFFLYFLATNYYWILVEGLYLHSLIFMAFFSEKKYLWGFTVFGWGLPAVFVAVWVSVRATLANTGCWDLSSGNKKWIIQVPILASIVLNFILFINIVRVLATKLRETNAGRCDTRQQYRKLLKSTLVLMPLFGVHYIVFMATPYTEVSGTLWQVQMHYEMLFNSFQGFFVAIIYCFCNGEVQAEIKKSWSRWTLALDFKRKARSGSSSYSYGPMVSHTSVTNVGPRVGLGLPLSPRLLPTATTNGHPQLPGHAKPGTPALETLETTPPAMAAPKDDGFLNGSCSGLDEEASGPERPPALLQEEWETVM
Description: Antagonist activity against human PTHR1 expressed in CHO-K1 cells assessed as reduction in PTH induced cAMP level incubated for 30 mins in presence of IBMX by cAMP assay. (cAMP levels reflect the balance of adenylyl cyclase and phosphodiesterase activity.)

Series [4] is described as follows: physchem. The conditions noted are these: JP1 fluid, pH 1.2.
For series [5], the target named is hERG (KCNH2) (Homo sapiens, UniProt Q12809). Description: Inhibition of human ERG potassium channel expressed in CHO-K1 cells at 3 uM incubated for 5 mins by patch clamp assay. It counts as toxicity, cell-based. As to conditions: CHO-K1 cells expressing human ERG potassium channel.
Chain of hERG (KCNH2) (Q12809 whole entry): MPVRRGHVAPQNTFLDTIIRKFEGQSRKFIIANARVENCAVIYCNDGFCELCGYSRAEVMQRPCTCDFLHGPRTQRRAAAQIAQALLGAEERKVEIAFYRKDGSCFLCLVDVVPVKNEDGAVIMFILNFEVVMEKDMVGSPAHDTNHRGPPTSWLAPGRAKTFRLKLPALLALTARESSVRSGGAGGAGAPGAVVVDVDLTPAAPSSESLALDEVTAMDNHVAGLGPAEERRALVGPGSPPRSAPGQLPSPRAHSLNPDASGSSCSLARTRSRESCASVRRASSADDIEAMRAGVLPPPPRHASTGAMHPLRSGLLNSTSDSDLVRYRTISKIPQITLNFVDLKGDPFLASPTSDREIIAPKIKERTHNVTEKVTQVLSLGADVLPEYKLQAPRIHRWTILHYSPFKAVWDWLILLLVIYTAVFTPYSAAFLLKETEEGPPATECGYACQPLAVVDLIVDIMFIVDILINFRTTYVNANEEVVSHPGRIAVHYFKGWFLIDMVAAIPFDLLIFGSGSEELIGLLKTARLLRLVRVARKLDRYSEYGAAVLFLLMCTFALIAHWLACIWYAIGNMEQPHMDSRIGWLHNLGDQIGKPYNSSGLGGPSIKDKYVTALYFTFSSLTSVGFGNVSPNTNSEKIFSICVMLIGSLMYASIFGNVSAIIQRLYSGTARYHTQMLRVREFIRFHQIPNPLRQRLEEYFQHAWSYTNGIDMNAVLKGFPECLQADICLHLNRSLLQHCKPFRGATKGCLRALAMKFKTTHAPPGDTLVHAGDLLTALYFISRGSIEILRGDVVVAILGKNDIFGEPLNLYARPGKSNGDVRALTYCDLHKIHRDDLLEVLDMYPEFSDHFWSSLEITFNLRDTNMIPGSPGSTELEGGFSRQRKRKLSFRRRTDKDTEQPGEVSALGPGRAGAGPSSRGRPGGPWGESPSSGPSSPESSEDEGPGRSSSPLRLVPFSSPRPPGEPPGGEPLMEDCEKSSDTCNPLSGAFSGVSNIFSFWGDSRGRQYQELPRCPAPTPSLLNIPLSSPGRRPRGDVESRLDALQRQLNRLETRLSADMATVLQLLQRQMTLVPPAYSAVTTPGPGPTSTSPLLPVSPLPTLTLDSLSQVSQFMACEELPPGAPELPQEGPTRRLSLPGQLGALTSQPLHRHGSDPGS
Series [6] has as its target T2, CYP1A2 (Homo sapiens, UniProt P05177).
T2 sequence (P05177 whole entry): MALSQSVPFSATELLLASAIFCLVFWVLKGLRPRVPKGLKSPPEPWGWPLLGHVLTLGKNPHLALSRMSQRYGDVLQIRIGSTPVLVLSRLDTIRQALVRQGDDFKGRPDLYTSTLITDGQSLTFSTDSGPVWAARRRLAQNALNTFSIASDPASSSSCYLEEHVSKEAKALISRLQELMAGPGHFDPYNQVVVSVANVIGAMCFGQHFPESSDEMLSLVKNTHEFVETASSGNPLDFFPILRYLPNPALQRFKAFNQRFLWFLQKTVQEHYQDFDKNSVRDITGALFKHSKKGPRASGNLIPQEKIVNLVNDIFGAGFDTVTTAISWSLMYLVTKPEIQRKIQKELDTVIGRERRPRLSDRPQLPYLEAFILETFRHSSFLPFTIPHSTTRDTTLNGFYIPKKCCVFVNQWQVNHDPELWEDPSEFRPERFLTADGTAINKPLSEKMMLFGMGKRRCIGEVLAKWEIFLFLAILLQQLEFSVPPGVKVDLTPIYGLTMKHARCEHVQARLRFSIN
Description: Inhibition of CYP1A2 (unknown origin) at 10 uM relative to control. The class given is ADME.

Series [7] addresses CYP2D6 (Homo sapiens, UniProt P10635). As to the kind of experiment: Inhibition of CYP2D6 (unknown origin) at 10 uM relative to control. The class given is ADME.
The target of series [8] is T3, CYP2C8 (Homo sapiens, UniProt P10632).
T3 sequence (P10632 whole entry): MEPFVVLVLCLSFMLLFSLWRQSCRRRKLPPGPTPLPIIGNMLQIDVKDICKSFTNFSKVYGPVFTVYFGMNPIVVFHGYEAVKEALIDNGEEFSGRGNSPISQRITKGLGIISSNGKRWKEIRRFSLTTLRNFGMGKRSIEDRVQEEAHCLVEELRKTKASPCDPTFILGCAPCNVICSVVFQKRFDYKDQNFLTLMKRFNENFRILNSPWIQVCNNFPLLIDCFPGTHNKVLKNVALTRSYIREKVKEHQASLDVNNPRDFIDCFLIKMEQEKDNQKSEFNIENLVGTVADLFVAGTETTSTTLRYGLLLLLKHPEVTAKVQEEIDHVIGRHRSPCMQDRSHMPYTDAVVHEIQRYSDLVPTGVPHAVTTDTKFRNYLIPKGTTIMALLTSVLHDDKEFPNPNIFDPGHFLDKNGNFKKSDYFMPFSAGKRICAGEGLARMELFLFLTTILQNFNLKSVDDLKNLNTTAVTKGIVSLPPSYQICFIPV
Description: Inhibition of CYP2C8 (unknown origin) at 10 uM relative to control. The class given is ADME.

Series [9] deals with CYP2C19 (Homo sapiens, UniProt P33261). Description: Inhibition of CYP2C19 (unknown origin) at 10 uM relative to control. It counts as ADME.
Chain of CYP2C19 (P33261 whole entry): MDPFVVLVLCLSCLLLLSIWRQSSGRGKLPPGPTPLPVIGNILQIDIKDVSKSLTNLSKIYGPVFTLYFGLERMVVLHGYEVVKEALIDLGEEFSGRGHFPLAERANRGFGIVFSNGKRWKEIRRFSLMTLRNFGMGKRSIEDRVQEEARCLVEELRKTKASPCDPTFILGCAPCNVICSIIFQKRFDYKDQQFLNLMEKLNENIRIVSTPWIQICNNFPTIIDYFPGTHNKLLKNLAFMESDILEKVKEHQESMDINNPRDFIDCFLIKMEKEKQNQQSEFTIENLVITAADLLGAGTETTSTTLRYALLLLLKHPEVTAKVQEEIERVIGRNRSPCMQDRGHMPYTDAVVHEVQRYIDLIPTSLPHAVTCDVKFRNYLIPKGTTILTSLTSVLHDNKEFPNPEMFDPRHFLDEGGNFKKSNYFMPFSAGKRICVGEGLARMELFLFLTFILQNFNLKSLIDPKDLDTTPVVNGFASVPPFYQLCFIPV
Series [10] can be described thus: Distribution coefficient, log D of compound in 1-octanol and aqueous phosphate buffered saline at pH 7.4 incubated for 30 mins by HPLC-MS analysis. As to conditions: 1-octanol/phosphate buffered saline.
Series [11] is described as follows: AUClast in Sprague-Dawley rat at 5 mg/kg, po by LC-MS/MS analysis. The conditions noted are these: in vivo.
Series [12] in a line: in vivo. As to conditions: Sprague-Dawley, rat, po, 5 mg/kg.

Each structure is given as a SMILES string. In brackets after ≈: the same amount, converted by molar mass.

By share remaining is commonly meant the share of the starting amount still present when the sample was taken. In general, solubility refers to how much of the substance goes into solution per volume. A word on the IC50: it is the concentration at which inhibition is half-maximal. Broadly, the inhibition is the drop in the measured response relative to a control, in per cent. In general, logD refers to lipophilicity at a set pH, counting ionised and neutral species. One may read the AUC(0-t) as exposure summed from dosing to a finite time, without extrapolation to infinity. A lower AUC(0-t) goes with low exposure. One may read the Cmax as the highest concentration seen after dosing.

Chain of CYP2D6 (P10635 whole entry): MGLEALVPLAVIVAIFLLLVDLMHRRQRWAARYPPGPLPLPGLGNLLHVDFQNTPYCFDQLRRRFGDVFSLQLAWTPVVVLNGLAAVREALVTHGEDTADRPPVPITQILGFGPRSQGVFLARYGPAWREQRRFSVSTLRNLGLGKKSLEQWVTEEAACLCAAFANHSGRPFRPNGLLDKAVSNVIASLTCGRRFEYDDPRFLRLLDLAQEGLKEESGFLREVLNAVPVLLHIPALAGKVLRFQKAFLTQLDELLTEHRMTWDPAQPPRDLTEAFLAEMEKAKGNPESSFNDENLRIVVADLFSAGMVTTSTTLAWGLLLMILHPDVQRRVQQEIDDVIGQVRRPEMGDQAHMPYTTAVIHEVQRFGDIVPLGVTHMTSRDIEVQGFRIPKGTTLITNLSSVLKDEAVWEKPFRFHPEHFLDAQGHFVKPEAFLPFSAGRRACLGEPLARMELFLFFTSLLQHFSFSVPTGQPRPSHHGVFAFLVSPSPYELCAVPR

Consider `CC1(C)C(=O)N(c2ccc(N3CC(O)(CNC4CCOCC4)C3)cc2)c2cc(Cl)ccc2-c2cc(Cl)cnc21`, for which the amount remaining at 0.5 h, 1 µM in series [1] turned out to be 82%. The solubility at 4 h in series [2] is 88 µg/mL (≈ 155 µM); in series [4], 940 µg/mL (≈ 1660 µM). The IC50 in [3] worked out at 840 nM.
On to `COC(=O)C1(CNC2CCOCC2)CN(c2ccc(N3C(=O)C(C)(C)c4ncc(Cl)cc4-c4ccc(Cl)cc43)cc2)C1`, for which the fraction remaining at 0.5 h, 1 µM in [1] worked out at 23%. Further, the results for the solubility at 4 h in series [2] and in [4] were 0.7 µg/mL (≈ 1.15 µM) and 160 µg/mL (≈ 262 µM), respectively. For the same compound, the IC50 in [3] was found to be 110 nM.
Taken in the same sequence, the figures for `COC1(CN(C)C2CCOCC2)CN(c2ccc(N3C(=O)C(C)(C)c4ncc(Cl)cc4-c4ccc(Cl)cc43)cc2)C1` were 23%, 2.5 µg/mL (≈ 4.2 µM), 530 µg/mL (≈ 890 µM) and 780 nM.
In the case of `CC1(C)C(=O)N(c2ccc(N3CC(CN[C@H]4CC[C@H](C(=O)O)CC4)C3)cc2)c2cc(Cl)ccc2-c2cc(Cl)cnc21`, the inhibition at 5 min, 3 µM in series [5] came out at 0%.
As for `CC1(C)C(=O)N(c2ccc(N3CC(CNC4CCOCC4)(C(=O)O)C3)cc2)c2cc(Cl)ccc2-c2cc(Cl)cnc21`, the amount remaining at 0.5 h, 1 µM in series [1] turned out to be 93%. Further, the values for the solubility at 4 h in series [2] and in series [4] were 97 µg/mL (≈ 163 µM) and 100 µg/mL (≈ 168 µM), respectively. Further, the IC50 in series [3] was 23000 nM.
`COC1(CN[C@H]2CC[C@H](C(=O)O)CC2)CN(c2ccc(N3C(=O)C(C)(C)c4ncc(Cl)cc4-c4ccc(Cl)cc43)cc2)C1`: the inhibition at 5 min, 3 µM in [5] worked out at 0%.
Regarding `CC1(C)C(=O)N(c2ccc(N3CC(F)(CN[C@H]4CC[C@H](C(=O)O)CC4)C3)cc2)c2cc(Cl)ccc2-c2cc(Cl)cnc21`, the inhibition at 5 min, 3 µM in series [5] stood at 2%. Further, the inhibition at 10 µM in series [6], in series [7], in series [8] and in [9] was below 50% each time.
Turning to `CC1(C)C(=O)N(c2ccc(N3CC(F)(CNC45CCC(C(=O)O)(CC4)CC5)C3)cc2)c2cc(Cl)ccc2-c2cc(Cl)cnc21`, the amount remaining at 0.5 h, 1 µM in series [1] was determined as 97%. The logD at 0.5 h in [10] came out at 2.8. The AUC(0-t) in series [11] was 11900 ng·h/mL. Moreover, in series [3], the IC50 is 90 nM. In series [12], the Cmax worked out at 900 ng/mL.

The values above are taken from ChEMBL document CHEMBL5143691, “Lead optimization of pyrido[2,3-d][1]benzazepin-6-one derivatives leading to the discovery of a potent, selective, and orally available human parathyroid hormone receptor 1 (hPTHR1) antagonist (DS69910557)” (Bioorg Med Chem, 2022).
